Reference: the NIST ThermoML archive (doi:10.1016/j.jct.2014.02.008)

Assay: cn = amount concentration of the nth substance listed, in mol/dm3
Details: 298.15 K, 101 kPa, Liquid, Taylor dispersion method

NCCCC[C@H](N)C(=O)O [L-lysine] + O
binary diffusion coefficient (c1 = 0.001): 6.66e-10 m2/s
binary diffusion coefficient (c1 = 0.005): 6.62e-10 m2/s
binary diffusion coefficient (c1 = 0.01): 6.61e-10 m2/s
binary diffusion coefficient (c1 = 0.02): 6.59e-10 m2/s
binary diffusion coefficient (c1 = 0.03): 6.52e-10 m2/s
binary diffusion coefficient (c1 = 0.05): 6.46e-10 m2/s
binary diffusion coefficient (c1 = 0.1): 6.26e-10 m2/s
